Assay results from patent EP2818472A1, “Imidazo[4,5-c]pyridine and pyrrolo[3,2-c]pyridine compounds as G-protein-coupled receptor kinase 5 (GRK5) modulators” (Max-Planck-Gesellschaft zur Förderung der Wissenschaften …, priority 2013, dated 2014).

The compounds below were run on beta-TC6 cells (assay: Insulin HTRF assay (relative activity Ar) in beta-TC6 cells). Conditions: Mus musculus, Beta-TC6, 4 h, insulin HTRF, supernatant of beta-TC6 cells, incubation with test compound at 37°C for 2, 3, 4h; read-out: Ar (relative activity).
Format: cell-based, mouse
Summary of the method: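 beta-TC6 cells (15k/well, seeded 24 or 48 h) washed, then exposed to compound in induction buffer (0.5% DMSO final) for 2, 3 or 4 h at 37°C.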

Row | SMILES | Emax
1 | COc1ccccc1-c1cc2c(Nc3ccc(NC(C)=O)cc3)nccc2n1C [Compound 301, N-[4-[[2-(2-methoxyphenyl)-1-methyl-pyrrolo[3,2-c]pyridin-4-yl]amino]phenyl]acetamide] | 50 to 100%
2 | COc1ccccc1-c1cc2c(Nc3cccnc3)nccc2n1C [Compound 303, 2-(2-methoxyphenyl)-1-methyl-N-(3-pyridyl)pyrrolo[3,2-c]pyridin-4-amine] | 30 to 50%
3 | COc1ccccc1-c1cc2c(Nc3ccccn3)nccc2n1C [Compound 304, 2-(2-methoxyphenyl)-1-methyl-N-(2-pyridyl)pyrrolo[3,2-c]pyridin-4-amine] | 30 to 50%
4 | COc1cccc(-c2cc3c(Nc4ccc(NC(C)=O)cc4)nccc3[nH]2)c1 [Compound 306, N-[4-[[2-(3-methoxyphenyl)-1H-pyrrolo[3,2-c]pyridin-4-yl]amino]phenyl]acetamide] | 50 to 100%
5 | COc1cccc(-c2cc3c(Nc4ccc(OC)nc4)nccc3[nH]2)c1 [Compound 307, 2-(3-methoxyphenyl)-N-(6-methoxy-3-pyridyl)-1H-pyrrolo[3,2-c]pyridin-4-amine] | 50 to 100%
6 | COc1cccc(-c2cc3c(Nc4cccnc4)nccc3[nH]2)c1 [Compound 308, 2-(3-methoxyphenyl)-N-(3-pyridyl)-1H-pyrrolo[3,2-c]pyridin-4-amine] | 50 to 100%
7 | COc1cccc(-c2cc3c(Nc4ccccc4)nccc3[nH]2)c1 [Compound 309, 2-(3-methoxyphenyl)-N-phenyl-1H-pyrrolo[3,2-c]pyridin-4-amine] | 30 to 50%
8 | COc1cccc(-c2cc3c(Nc4ccc(N5CCN(C)CC5)cc4)nccc3[nH]2)c1 [Compound 310, 2-(3-methoxyphenyl)-N-[4-(4-methylpiperazin-1-yl)phenyl]-1H-pyrrolo[3,2-c]pyridin-4-amine] | 50 to 100%
9 | COc1cccc(-c2cc3c(Nc4cccc(S(C)(=O)=O)c4)nccc3[nH]2)c1 [Compound 311, 2-(3-methoxyphenyl)-N-(3-methylsulfonylphenyl)-1H-pyrrolo[3,2-c]pyridin-4-amine] | 50 to 100%
10 | COc1cccc(-c2cc3c(Nc4ccc(OC)c(O)c4)nccc3[nH]2)c1 [Compound 312, 2-methoxy-5-[[2-(3-methoxyphenyl)-1H-pyrrolo[3,2-c]pyridin-4-yl]amino]phenol] | 50 to 100%
11 | COc1cccc(-c2cc3c(Nc4ccc(C(=O)N(C)C)cc4)nccc3[nH]2)c1 [Compound 313, 4-[[2-(3-methoxyphenyl)-1H-pyrrolo[3,2-c]pyridin-4-yl]amino]-N,N-dimethyl-benzamide] | > 100%
12 | Clc1cccc(-c2cc3c(Nc4cccnc4)nccc3[nH]2)c1 [Compound 315, 2-(3-chlorophenyl)-N-(3-pyridyl)-1H-pyrrolo[3,2-c]pyridin-4-amine] | 30 to 50%
13 | Cn1c(-c2cccc(Cl)c2)cc2c(Nc3ccncn3)nccc21 [Compound 316, 2-(3-chlorophenyl)-1-methyl-N-pyrimidin-4-yl-pyrrolo[3,2-c]pyridin-4-amine] | 30 to 50%
14 | Oc1ccc(Nc2nccc3[nH]c(-c4ccccc4)cc23)cc1 [Compound 317, 4-[(2-phenyl-1H-pyrrolo[3,2-c]pyridin-4-yl)amino]phenol] | 50 to 100%
15 | NC(=O)c1ccc(Nc2nccc3[nH]c(-c4ccccc4)cc23)cc1 [Compound 318, 4-[(2-phenyl-1H-pyrrolo[3,2-c]pyridin-4-yl)amino]benzamide] | > 100%
16 | c1ccc(-c2cc3c(Nc4cccnc4)nccc3[nH]2)cc1 [Compound 319, 2-phenyl-N-(3-pyridyl)-1H-pyrrolo[3,2-c]pyridin-4-amine] | 50 to 100%
17 | CN1CCN(c2ccc(Nc3nccc4[nH]c(-c5ccccc5)cc34)cc2)CC1 [Compound 320, N-[4-(4-methylpiperazin-1-yl)phenyl]-2-phenyl-1H-pyrrolo[3,2-c]pyridin-4-amine] | 30 to 50%

Row | SMILES | Emax
18 | c1ccc(-c2cc3c(Nc4ccccn4)nccc3[nH]2)cc1 [Compound 321, 2-phenyl-N-(2-pyridyl)-1H-pyrrolo[3,2-c]pyridin-4-amine] | 30 to 50%
19 | CN(C)C(=O)c1ccc(Nc2nccc3[nH]c(-c4ccccc4)cc23)cc1 [Compound 322, N,N-dimethyl-4-[(2-phenyl-1 H-pyrrolo[3,2-c]pyridin-4-yl)amino]benzamide] | > 100%
20 | CC(=O)Nc1cccc(Nc2nccc3[nH]c(-c4ccccc4)cc23)c1 [Compound 323, N-[3-[(2-phenyl-1 H-pyrrolo[3,2-c]pyridin-4-yl)amino]phenyl]acetamide] | 50 to 100%
21 | CS(=O)(=O)c1ccc(Nc2nccc3[nH]c(-c4ccccc4)cc23)cc1 [Compound 324, N-(4-methylsulfonylphenyl)-2-phenyl-1H-pyrrolo[3,2-c]pyridin-4-amine] | 50 to 100%
22 | Cn1c(-c2ccccc2)cc2c(Nc3ccc(C(N)=O)cc3)nccc21 [Compound 325, 4-[(1-methyl-2-phenyl-pyrrolo[3,2-c]pyridin-4-yl)amino]benzamide] | 30 to 50%
23 | COc1ccc(Nc2nccc3c2cc(-c2ccccc2)n3C)cc1OC [Compound 326, N-(3,4-dimethoxyphenyl)-1-methyl-2-phenyl-pyrrolo[3,2-c]pyridin-4-amine] | 30 to 50%
24 | Cn1c(-c2ccccc2)cc2c(Nc3ccccn3)nccc21 [Compound 327, 1-methyl-2-phenyl-N-(2-pyridyl)pyrrolo[3,2-c]pyridin-4-amine] | 50 to 100%
25 | Cn1c(-c2ccccc2)cc2c(Nc3cccc(O)c3)nccc21 [Compound 328, 3-[(1-methyl-2-phenyl-pyrrolo[3,2-c]pyridin-4-yl)amino]phenol] | 30 to 50%
26 | COc1cc(Nc2nccc3[nH]c(-c4ccccc4)nc23)cc(OC)c1OC [Compound 329, 2-phenyl-N-(3,4,5-trimethoxyphenyl)-1H-imidazo[4,5-c]pyridin-4-amine] | 50 to 100%
27 | COc1ccc(Nc2nccc3[nH]c(-c4ccccc4)nc23)cc1OC [Compound 330, N-(3,4-dimethoxyphenyl)-2-phenyl-1H-imidazo[4,5-c]pyridin-4-amine] | > 100%
28 | CN(C)c1cccc(Nc2nccc3[nH]c(-c4ccccc4)nc23)c1 [Compound 331, N1,N1-dimethyl-N3-(2-phenyl-1H-imidazo[4,5-c]pyridin-4-yl)benzene-1,3-diamine] | 50 to 100%
29 | c1ccc(-c2nc3c(NCCc4ccccn4)nccc3[nH]2)cc1 [Compound 332, 2-phenyl-N-[2-(2-pyridyl)ethyl]-1H-imidazo[4,5-c]pyridin-4-amine] | 30 to 50%
30 | COc1ccc(Nc2nccc3[nH]c(-c4ccccc4)nc23)cc1 [Compound 333, N-(4-methoxyphenyl)-2-phenyl-1H-imidazo[4,5-c]pyridin-4-amine] | 50 to 100%
31 | CN1CCN(c2nccc3[nH]c(-c4ccccc4)nc23)CC1 [Compound 334, 4-(4-methylpiperazin-1-yl)-2-phenyl-1H-imidazo[4,5-c]pyridine] | 30 to 50%
32 | c1ccc(-c2nc3c(NCc4ccncc4)nccc3[nH]2)cc1 [Compound 335, 2-phenyl-N-(4-pyridylmethyl)-1H-imidazo[4,5-c]pyridin-4-amine] | 0 to 30%
33 | CS(=O)(=O)c1cccc(Nc2nccc3[nH]c(-c4ccccc4)nc23)c1 [Compound 336, N-(3-methylsulfonylphenyl)-2-phenyl-1H-imidazo[4,5-c]pyridin-4-amine] | 30 to 50%
34 | Oc1cccc(Nc2nccc3[nH]c(-c4ccccc4)nc23)c1 [Compound 337, 3-[(2-phenyl-1H-imidazo[4,5-c]pyridin-4-yl)amino]phenol] | 30 to 50%
